Values of other authors in patent publication US5952383A, “Pharmaceutical composition for oral delivery” (Negma-Steba International Development N.V., priority 1996, dated 1999).
Structures can show the parent of a compound that is named as a salt.

Columns and labels:
[1] = oral

| SMILES | solubility in carbonate solutions and in tetrahydrofuran (carbonate solutions and tetrahydrofuran) | solubility in water and in alcohols (water and alcohols) | solubility in water and ethanol (water and ethanol) | absorption by the digestive tract [1] | undesirable side effects ([1]; on account of incomplete absorption) | solubility in water (water, EP-A-243,968) |
| --- | --- | --- | --- | --- | --- | --- |
| CC(=O)Oc1cccc2c1C(=O)c1c(OC(C)=O)cc(C(=O)O)cc1C2=O [diacerein, diacetylrhein] | sparingly soluble | virtually insoluble | virtually insoluble | not totally absorbed | laxative effects |  |
| CC(=O)Oc1cccc2c1C(=O)c1c(OC(C)=O)cc(C(=O)O)cc1C2=O [potassium salt of diacerein] |  |  |  |  |  | water-soluble |
